Results on 1 molecule are retold here after patent publication US7364759B2, “Skin whitening compositions containing black cohosh extract” (Access Business Group International LLC, priority 2003, dated 2008).

The test system of this assay is mouse derived immortalized melanocyte cells (M3). The assay can be described thus: Suppression of melanogenesis in vitro (modified Dooley assay). The settings on record: treatment dose 0.100%; treated days 1, 3, 5; melanin extracted day 6, OD 405 nm. Type of assay: cell-based.

For the molecule `O=C1O[C@H]([C@@H](O)CO)C(O)=C1O` [Ascorbic Acid], the “% Control Melanin” value is reported as 51%.
